Assay results reported in patent US12264156B2, “Compounds and pharmaceutical compositions thereof for the treatment of diseases” (GALAPAGOS NV, priority 2018, dated 2025).
pEC50: −log10 of the molar value.

Tests used:
[1] = test system: LPS-induced TNFα in monocytes; assay: Monocytes assay: LPS-triggered TNFα (ELISA); format: cell-based, human; settings: LPS 200 ng/mL, supernatant after 4 h
How it was run: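 Supernatant TNFα was quantified by luminol-based sandwich ELISA after 4 h stimulation with LPS (200 ng/mL final). The cells were CD14-bead-purified monocytes from human PBMCs, 100 000 per well, exposed to 3-fold compound dilutions for 1 h at 37° C beforehand, with DMSO at 0.2%. Results are reported as percent inhibition.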

[2] = test system: LPS triggered IL-10 secretion in monocytes; assay: Monocytes assay: LPS-triggered IL-10 (ELISA); format: cell-based, human; settings: LPS 200 ng/mL, supernatant after 4 h, maximal fold change vs LPS only
How it was run: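 Human CD14+ monocytes, magnetically isolated from buffy-coat PBMCs, were seeded at 100 000 cells/well and preincubated with compound for 1 h at 37° C (0.2% DMSO). LPS was then added at a final 200 ng/mL for 4 h. Supernatant IL-10 was quantified by chemiluminescent sandwich ELISA against a standard curve.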

| Compound | pEC50 [1] | pEC50 ([1]; Homo sapiens, Monocyte, 4 h) | IL-10 FCmax median [2] | pEC50 ([1]; Homo sapiens, Monocyte) |
| --- | --- | --- | --- | --- |
| COc1cc(-c2cnc3cc(OCC(O)CN4CCOCC4)ccn23)cc(OC(F)F)c1C(=O)NC1CC1 (single isomer, unassigned) [Cpd 386, N-cyclopropyl-2-(difluoromethoxy)-4-[7-(2-hydroxy-3-morpholino-propoxy)imidazo[1,2-a]pyridin-3-yl]-6-methoxy-benzamide] | 6.00 to 7.00 | – | +++ (>4.5) | – |
| COc1cc(-c2cnc3cc(OCC(O)CN4CCOCC4)ccn23)cc(OC(F)F)c1C(=O)NC1CC1 (single isomer, unassigned) [Cpd 387, N-cyclopropyl-2-(difluoromethoxy)-4-[7-(2-hydroxy-3-morpholino-propoxy)imidazo[1,2-a]pyridin-3-yl]-6-methoxy-benzamide] | 7.00 to 10.00 | – | +++ (>4.5) | – |
| COc1cc(-c2cnc3cc(OCCN4C5CCC4COC5)ccn23)cc(OC(F)F)c1C(=O)NC1CC1 [compound 193, N-cyclopropyl-2-(difluoromethoxy)-6-methoxy-4-[7-[2-(3-oxa-8-azabicyclo [3.2.1]octan-8-yl)ethoxy]imidazo[1,2-a]pyridin-3-yl]benzamide] | – | – | +++ (>4.5) | 7.00 to 10.00 |
| COc1cc(-c2cnc3cc(OCc4nncn4C)ccn23)cc(OC(F)F)c1C(=O)NC1CC1 [compound 227, N-cyclopropyl-2-(difluoromethoxy)-6-methoxy-4-[7-[(4-methyl-1,2,4-triazol-3-yl)methoxy]imidazo[1,2-a]pyridin-3-yl]benzamide] | – | 5.30 to 6.00 | ++ (>1.5-4.5) | – |
| COc1cc(-c2cnc3cc(OCCN4CCOC[C@@H]4C)ccn23)cc(OC(F)F)c1C(=O)NC1CC1 [compound 233, N-cyclopropyl-2-(difluoromethoxy)-6-methoxy-4-[7-[2-[(3S)-3-methylmorpholin-4-yl]ethoxy]imidazo[1,2-a]pyridin-3-yl]benzamide] | – | 6.00 to 7.00 | +++ (>4.5) | – |
| COc1cc(-c2cnc3cc(OCCN4CCOC[C@H]4C)ccn23)cc(OC(F)F)c1C(=O)NC1CC1 [compound 234, N-cyclopropyl-2-(difluoromethoxy)-6-methoxy-4-[7-[2-[(3R)-3-methylmorpholin-4-yl]ethoxy]imidazo[1,2-a]pyridin-3-yl]benzamide] | – | 6.00 to 7.00 | +++ (>4.5) | – |
| COc1cc(-c2cnc3cc(OC[C@H]4COCCO4)ccn23)cc2c1C(=O)NCC2 [compound 242, 6-[7-[[(2R)-1,4-dioxan-2-yl]methoxy]imidazo[1,2-a]pyridin-3-yl]-8-methoxy-3,4-dihydro-2H-isoquinolin-1-one] | – | 6.00 to 7.00 | ++ (>1.5-4.5) | – |
| COc1cc(-c2cnc3cc(OCC4(F)CN(C(=O)OC(C)(C)C)C4)ccn23)cc2c1C(=O)N(CC(F)(F)F)CC2 [compound 248, tert-butyl 3-fluoro-3-[[3-[8-methoxy-1-oxo-2-(2,2,2-trifluoroethyl)-3,4-dihydroisoquinolin-6-yl]imidazo[1,2-a]pyridin-7-yl]oxymethyl]azetidine-1-carboxylate] | – | 6.00 to 7.00 | +++ (>4.5) | – |
| COc1cc(-c2cnc3cc(OCC4(F)CN(C)C4)ccn23)cc2c1C(=O)N(CC(F)(F)F)CC2 [compound 252, 6-[7-[(3-fluoro-1-methyl-azetidin-3-yl)methoxy]imidazo[1,2-a]pyridin-3-yl]-8-methoxy-2-(2,2,2-trifluoroethyl)-3,4-dihydro isoquinolin-1-one] | – | 6.00 to 7.00 | +++ (>4.5) | – |
| COc1cc(-c2cnc3cc(OCCN4CCOC[C@H]4C)ccn23)cc2c1C(=O)N(CC(F)(F)F)CC2 [compound 259, 8-methoxy-6-[7-[2-[(3R)-3-methylmorpholin-4-yl]ethoxy]imidazo[1,2-a]pyridin-3-yl]-2-(2,2,2-trifluoroethyl)-3,4-dihydroisoquinolin-1-one] | – | 6.00 to 7.00 | +++ (>4.5) | – |
| COc1cc(-c2cnc3cc(OCCCN4CC5(COC5)C4)ccn23)cc(OC(F)F)c1C(=O)NC1CC1 [compound 273, N-cyclopropyl-2-(difluoromethoxy)-6-methoxy-4-[7-[3-(2-oxa-6-azaspiro[3.3]heptan-6-yl)propoxy]imidazo[1,2-a]pyridin-3-yl]benzamide] | – | 6.00 to 7.00 | ++ (>1.5-4.5) | – |
| COc1cc(-c2cnc3cc(OCCCN4CCC4)ccn23)cc(OC(F)F)c1C(=O)NC1CC1 [compound 274, 4-[7-[3-(azetidin-1-yl)propoxy]imidazo[1,2-a]pyridin-3-yl]-N-cyclopropyl-2-(difluoromethoxy)-6-methoxy-benzamide] | – | 6.00 to 7.00 | ++ (>1.5-4.5) | – |

More lines, main results first:

| pEC50 [1] | pEC50 ([1]; Homo sapiens, Monocyte, 4 h) | Compound | IL-10 FCmax median [2] | pEC50 ([1]; Homo sapiens, Monocyte) |
| --- | --- | --- | --- | --- |
| – | 6.00 to 7.00 | COc1cc(-c2cnc3cc(OC(C)(C)CO)ccn23)cc(OC(F)F)c1C(=O)NC1CC1 [Cpd 209, N-cyclopropyl-2-(difluoromethoxy)-4-[7-(2-hydroxy-1,1-dimethyl-ethoxy)imidazo[1,2-a]pyridin-3-yl]-6-methoxy-benzamide] | + (≤1.5) | – |
| – | 6.00 to 7.00 | COc1cc(-c2cnc3cc(OCCN4CC(F)(F)C4)ccn23)cc2c1C(=O)N(CC(F)(F)F)CC2 [Cpd 244, 6-[7-[2-(3,3-difluoroazetidin-1-yl)ethoxy]imidazo[1,2-a]pyridin-3-yl]-8-methoxy-2-(2,2,2-trifluoroethyl)-3,4-dihydroisoquinolin-1-one] | +++ (>4.5) | – |
| – | 6.00 to 7.00 | COc1cc(-c2cnc3cc(OCCN4CCOC[C@@H]4C)ccn23)cc2c1C(=O)N(CC(F)(F)F)CC2 [Cpd 257, 8-methoxy-6-[7-[2-[(3S)-3-methylmorpholin-4-yl]ethoxy]imidazo[1,2-a]pyridin-3-yl]-2-(2,2,2-trifluoroethyl)-3,4-dihydroisoquinolin-1-one] | +++ (>4.5) | – |
| – | 6.00 to 7.00 | COc1cc(-c2cnc3cc(OCCCN4CC(O)C4)ccn23)cc(OC(F)F)c1C(=O)NC1CC1 [Cpd 286, N-cyclopropyl-2-(difluoromethoxy)-4-[7-[3-(3-hydroxyazetidin-1-yl)propoxy]imidazo[1,2-a]pyridin-3-yl]-6-methoxy-benzamide] | ++ (>1.5-4.5) | – |
| – | 7.00 to 10.00 | COc1cc(-c2cnc3cc(OCC(O)CN4CCCCC4)ccn23)cc(OC(F)F)c1C(=O)NC1CC1 (centres unmarked) [Cpd 321, N-cyclopropyl-2-(difluoromethoxy)-4-[7-[2-hydroxy-3-(1-piperidyl)propoxy]imidazo [1,2-a]pyridin-3-yl]-6-methoxy-benzamide] | +++ (>4.5) | – |
| – | 6.00 to 7.00 | COc1cc(-c2cnc3cc(OCCCN4CCC5(CC4)CNC(=O)O5)ccn23)cc(OC(F)F)c1C(=O)NC1CC1 [Cpd 324, N-cyclopropyl-2-(difluoromethoxy)-6-methoxy-4-[7-[3-(2-oxo-1-oxa-3,8-diazaspiro[4.5]decan-8-yl)propoxy]imidazo[1,2-a]pyridin-3-yl]benzamide] | ++ (>1.5-4.5) | – |
| – | 6.00 to 7.00 | COc1cc(-c2cnc3cc(OCC(O)CN4CCOCC4)ccn23)cc(OC(F)F)c1C(=O)NC1CC1 (centres unmarked) [Cpd 330, N-cyclopropyl-2-(difluoromethoxy)-4-[7-(2-hydroxy-3-morpholino-propoxy)imidazo[1,2-a]pyridin-3-yl]-6-methoxy-benzamide] | +++ (>4.5) | – |
| – | 7.00 to 10.00 | COc1cc(-c2cnc3cc(OCCCN4CCS(=O)(=O)CC4)ccn23)cc(OC(F)F)c1C(=O)NC1CC1 [Cpd 331, N-cyclopropyl-2-(difluoromethoxy)-4-[7-[3-(1,1-dioxo-1,4-thiazinan-4-yl)propoxy]imidazo[1,2-a]pyridin-3-yl]-6-methoxy-benzamide] | +++ (>4.5) | – |
| – | 7.00 to 10.00 | CCOC(=O)C1(F)CCN(CCCOc2ccn3c(-c4cc(OC)c(C(=O)NC5CC5)c(OC(F)F)c4)cnc3c2)CC1 [Cpd 363, ethyl 1-[3-[3-[4-(cyclopropylcarbamoyl)-3-(difluoromethoxy)-5-methoxy-phenyl]imidazo[1,2-a]pyridin-7-yl]oxypropyl]-4-fluoro-piperidine-4-carboxylate] | +++ (>4.5) | – |
| – | 7.00 to 10.00 | COc1cc(-c2cnc3cc(OCCN4CCN(C)CC4)ccn23)cc(OC(F)F)c1C(=O)NC1CC1 [compound 9, N-cyclopropyl-2-(difluoromethoxy)-6-methoxy-4-[7-[2-(4-methylpiperazin-1-yl)ethoxy]imidazo[1,2-a]pyridin-3-yl]benzamide] | +++ (>4.5) | – |
| – | 6.00 to 7.00 | COc1cc(-c2cnc3cc(OCCN4CCOCC4)ccn23)cc2c1C(=O)N(CC(F)F)CC2 [compound 218, 2-(2,2-difluoroethyl)-8-methoxy-6-[7-(2-morpholinoethoxy)imidazo [1,2-a]pyridin-3-yl]-3,4-dihydroisoquinolin-1-one] | +++ (>4.5) | – |
| – | 6.00 to 7.00 | COc1cc(-c2cnc3cc(OC[C@H]4COCCO4)ccn23)cc2c1C(=O)N(CC(F)F)CC2 [compound 219, 2-(2,2-difluoroethyl)-6-[7-[[(2R)-1,4-dioxan-2-yl]methoxy]imidazo[1,2-a]pyridin-3-yl]-8-methoxy-3,4-dihydroisoquinolin-1-one] | +++ (>4.5) | – |
| – | 6.00 to 7.00 | COc1cc(-c2cnc3cc(OCC4(C)CN(C)C4)ccn23)cc(OC(F)F)c1C(=O)NC1CC1 [compound 220, N-cyclopropyl-2-(difluoromethoxy)-4-[7-[(1,3-dimethylazetidin-3-yl)methoxy]imidazo[1,2-a]pyridin-3-yl]-6-methoxy-benzamide] | +++ (>4.5) | – |
